Tests used:
Format in all cases: in vivo
Field Bindweed [1] = assay: Postemergence Herbicidal Activity, Field Bindweed; details: post-emergence; for pest or weed control at 500 g/ha: 0.5 kg/ha
Text: (§1) The herbicidal data in the following Tables 3 and 4 was obtained in the manner described in PCT published application no. WO 85/01939, previously mentioned, usually employing solutions of the herbicidal compound in 50/50 acetone/water mixtures. In those tables, the test compounds are identified by numbers which correspond to those in Table 1, "kg/ha" is kilograms per hectare, and "% C" is percent control.

Cotton [2] = assay: Postemergence Herbicidal Activity, Cotton; details: Gossypium hirsutum, post-emergence; for plant injury at 500 g/ha: 0.5 kg/ha
Text: as §1

Morningglory [3] = assay: Preemergence Herbicidal Activity, Morningglory; details: Ipomoea, pre-emergence; for pest or weed control at 500 g/ha: 0.5 kg/ha
Text: as §1

Barnyardgrass [4] = assay: Postemergence Herbicidal Activity, Barnyardgrass; details: Echinochloa crus-galli, post-emergence; for pest or weed control at 500 g/ha: 0.5 kg/ha
Text: (§2) The herbicidal data in the following Tables 3 and 4 was obtained in the manner described in PCT published application no. […] In those tables, the test compounds are identified by numbers which correspond to those in Table 1, "kg/ha" is kilograms per hectare, and "% C" is percent control.

Rice [5] = assay: Postemergence Herbicidal Activity, Rice; details: Oryza sativa, post-emergence; for plant injury at 500 g/ha: 0.5 kg/ha
Text: as §2

Wheat [6] = assay: Preemergence Herbicidal Activity, Wheat; details: Triticum aestivum, pre-emergence; for plant injury at 500 g/ha: 0.5 kg/ha
Text: as §2

Cotton [7] = assay: Preemergence Herbicidal Activity, Cotton; details: Gossypium hirsutum, pre-emergence; for plant injury at 500 g/ha: 0.5 kg/ha
Text: as §1

Green Foxtail [8] = assay: Postemergence Herbicidal Activity, Green Foxtail; details: Setaria viridis, post-emergence; for pest or weed control at 500 g/ha: 0.5 kg/ha
Text: as §2

Field Bindweed [9] = assay: Preemergence Herbicidal Activity, Field Bindweed; details: pre-emergence; for pest or weed control at 500 g/ha: 0.5 kg/ha
Text: as §1

Velvetleaf [10] = assay: Preemergence Herbicidal Activity, Velvetleaf; details: Abutilon theophrasti, pre-emergence; for pest or weed control at 500 g/ha: 0.5 kg/ha
Text: as §1

Field Corn [11] = assay: Postemergence Herbicidal Activity, Field Corn; details: Zea mays, post-emergence; for plant injury at 500 g/ha: 0.5 kg/ha
Text: as §2

Morningglory [12] = assay: Postemergence Herbicidal Activity, Morningglory; details: Ipomoea, post-emergence; for pest or weed control at 500 g/ha: 0.5 kg/ha
Text: as §1

Johnsongrass [13] = assay: Preemergence Herbicidal Activity, Johnsongrass; details: Sorghum halepense, pre-emergence; for pest or weed control at 500 g/ha: 0.5 kg/ha
Text: as §2

Green Foxtail [14] = assay: Preemergence Herbicidal Activity, Green Foxtail; details: Setaria viridis, pre-emergence; for pest or weed control at 500 g/ha: 0.5 kg/ha
Text: as §2

Soybean [15] = assay: Postemergence Herbicidal Activity, Soybean; details: Glycine max, post-emergence; for plant injury at 500 g/ha: 0.5 kg/ha
Text: as §2

Soybean [16] = assay: Preemergence Herbicidal Activity, Soybean; details: Glycine max, pre-emergence; for plant injury at 500 g/ha: 0.5 kg/ha
Text: as §2

Rice [17] = assay: Preemergence Herbicidal Activity, Rice; details: Oryza sativa, pre-emergence; for plant injury at 500 g/ha: 0.5 kg/ha
Text: as §2

Johnsongrass [18] = assay: Postemergence Herbicidal Activity, Johnsongrass; details: Sorghum halepense, post-emergence; for pest or weed control at 500 g/ha: 0.5 kg/ha
Text: as §2

Velvetleaf [19] = assay: Postemergence Herbicidal Activity, Velvetleaf; details: Abutilon theophrasti, post-emergence; for pest or weed control at 500 g/ha: 0.5 kg/ha
Text: as §1

Wheat [20] = assay: Postemergence Herbicidal Activity, Wheat; details: Triticum aestivum, post-emergence; for plant injury at 500 g/ha: 0.5 kg/ha
Text: as §2

Field Corn [21] = assay: Preemergence Herbicidal Activity, Field Corn; details: Zea mays, pre-emergence; for plant injury at 500 g/ha: 0.5 kg/ha
Text: as §2

Barnyardgrass [22] = assay: Preemergence Herbicidal Activity, Barnyardgrass; details: Echinochloa crus-galli, pre-emergence; for pest or weed control at 500 g/ha: 0.5 kg/ha
Text: as §2

CCN(c1cc(-n2nnn(CCCF)c2=O)c(F)cc1Cl)S(=O)(=O)CC [Compound 13, 1-[4-chloro-2-fluoro-5-[(N--ethyl-N--ehtylsulfonyl)amino]phenyl]-1,4-dihydro-4-(3-fluoropropyl)-5H--tetrazol-5-one]
100%: pest or weed control at 1000 g/ha (Field Bindweed [1]; 1.0 kg/ha) | plant injury at 1000 g/ha (Cotton [2]; 1.0 kg/ha) | pest or weed control at 1000 g/ha (Barnyardgrass [4]; 1.0 kg/ha) | plant injury at 1000 g/ha (Rice [5]; 1.0 kg/ha) | plant injury at 1000 g/ha (Wheat [6]; 1.0 kg/ha) | pest or weed control at 1000 g/ha (Green Foxtail [8]; 1.0 kg/ha) | pest or weed control at 1000 g/ha (Field Bindweed [9]; 1.0 kg/ha) | pest or weed control at 1000 g/ha (Velvetleaf [10]; 1.0 kg/ha) | plant injury at 1000 g/ha (Field Corn [11]; 1.0 kg/ha) | pest or weed control at 1000 g/ha (Morningglory [12]; 1.0 kg/ha) | pest or weed control at 1000 g/ha (Johnsongrass [13]; 1.0 kg/ha) | pest or weed control at 1000 g/ha (Green Foxtail [14]; 1.0 kg/ha) | plant injury at 1000 g/ha (Rice [17]; 1.0 kg/ha) | pest or weed control at 1000 g/ha (Johnsongrass [18]; 1.0 kg/ha) | pest or weed control at 1000 g/ha (Velvetleaf [19]; 1.0 kg/ha) | plant injury at 1000 g/ha (Wheat [20]; 1.0 kg/ha) | plant injury at 1000 g/ha (Field Corn [21]; 1.0 kg/ha) | pest or weed control at 1000 g/ha (Barnyardgrass [22]; 1.0 kg/ha)
95%: pest or weed control at 1000 g/ha (Morningglory [3]; 1.0 kg/ha) | plant injury at 1000 g/ha (Cotton [7]; 1.0 kg/ha) | plant injury at 1000 g/ha (Soybean [15]; 1.0 kg/ha) | plant injury at 1000 g/ha (Soybean [16]; 1.0 kg/ha)

CCS(=O)(=O)N(COC)c1cc(-n2nnn(CCCF)c2=O)c(F)cc1Cl [Compound 15, 1-[4-chloro-2-fluoro-5-[(N---ethylsulfonyl-N--methoxymethyl)amino]-phenyl]-1,4-dihydro-4-(3-fluoropropyl)-5H--tetrazol-5-one]
80%: pest or weed control at 500 g/ha (Field Bindweed [1]) | pest or weed control at 500 g/ha (Barnyardgrass [4]) | pest or weed control at 500 g/ha (Johnsongrass [18])
90%: pest or weed control at 500 g/ha (Green Foxtail [8])
95%: plant injury at 500 g/ha (Field Corn [11]) | plant injury at 500 g/ha (Soybean [15]) | plant injury at 500 g/ha (Soybean [16])
60%: plant injury at 500 g/ha (Rice [5])
100%: plant injury at 500 g/ha (Cotton [2]) | pest or weed control at 500 g/ha (Morningglory [3]) | plant injury at 500 g/ha (Wheat [6]) | plant injury at 500 g/ha (Cotton [7]) | pest or weed control at 500 g/ha (Field Bindweed [9]) | pest or weed control at 500 g/ha (Velvetleaf [10]) | pest or weed control at 500 g/ha (Morningglory [12]) | pest or weed control at 500 g/ha (Johnsongrass [13]) | pest or weed control at 500 g/ha (Green Foxtail [14]) | plant injury at 500 g/ha (Rice [17]) | pest or weed control at 500 g/ha (Velvetleaf [19]) | plant injury at 500 g/ha (Wheat [20]) | plant injury at 500 g/ha (Field Corn [21]) | pest or weed control at 500 g/ha (Barnyardgrass [22])

CCS(=O)(=O)N(CC#N)c1cc(-n2nnn(CCCF)c2=O)c(F)cc1Cl [Compound 16]
60%: plant injury at 500 g/ha (Wheat [6]) | pest or weed control at 500 g/ha (Johnsongrass [18]) | plant injury at 500 g/ha (Wheat [20])
90%: pest or weed control at 500 g/ha (Johnsongrass [13]) | pest or weed control at 500 g/ha (Barnyardgrass [22])
100%: pest or weed control at 500 g/ha (Field Bindweed [1]) | plant injury at 500 g/ha (Cotton [2]) | pest or weed control at 500 g/ha (Morningglory [3]) | plant injury at 500 g/ha (Cotton [7]) | pest or weed control at 500 g/ha (Field Bindweed [9]) | pest or weed control at 500 g/ha (Velvetleaf [10]) | pest or weed control at 500 g/ha (Morningglory [12]) | pest or weed control at 500 g/ha (Green Foxtail [14]) | pest or weed control at 500 g/ha (Velvetleaf [19])
80%: plant injury at 500 g/ha (Soybean [16])
70%: pest or weed control at 500 g/ha (Green Foxtail [8]) | plant injury at 500 g/ha (Soybean [15]) | plant injury at 500 g/ha (Rice [17])
50%: pest or weed control at 500 g/ha (Barnyardgrass [4]) | plant injury at 500 g/ha (Rice [5]) | plant injury at 500 g/ha (Field Corn [11])
95%: plant injury at 500 g/ha (Field Corn [21])
